The subject of this experiment is PTP1B in MCF-7 cell lysate. Nature of the experiment: Lysate labeling by western blot, MCF-7. The conditions noted are these: 25–500 µM, 4 h, MCF-7 lysate 4 mg/mL. Also on record: species or system human. The protocol:
To verify a consistent labeling profile by TMR‐PO, we tested additional PTP1B‐containing mammalian lysates. […] Therefore, we attempted to identify conditions where more intense labeling is noticeable. […] Increasing reaction time led to a proportional increase in biotin‐signal overlapping with the PTP1B band. […] A 4‐h incubation was chosen for the following experiments for ease of protocol and due to the robust labeling observed.
In that respect, following a 4‐h incubation time, we tested increasing concentrations of bio‐PO up to 500 µM to further increase the labeling efficiency. […] This highlights that labeling is also consistent with the abundance of PTP1B in these cell lines, which was measured by quantitative proteomics (Figure 5b). […]
For western blot analysis, samples resolved by SDS-PAGE were transferred to a polyvinylidene difluoride (PVDF) membrane using a Trans-Blot Turbo (Bio-Rad) semi dry blotting system according to the manufacturer`s instructions. […] The HRP signal was detected using the Pierce ECL Western Blotting Substrate (ThermoFisher Scientific) and imaged using the ChemiDoc (Bio-Rad) imaging system. […] Biotin was probed against using Streptavidin-horse radish peroxidase (HRP) conjugate (Thermo Fisher Scientific, N100) at a 1:5000 dilution for 1 hour at room temperature and the HRP signal was detected as mentioned above. […]

Molecules are shown by their SMILES.

Regarding `C#CP(=O)(O)Oc1ccc(CCNC(=O)CCCC[C@@H]2SC[C@@H]3NC(=O)N[C@@H]32)cc1` [SM-PO, 4-(2-biotinamidoethyl)phenyl ethynylphosphonic acid monoester], the “labeling of MCF-7 lysate by small molecule control SM-PO” value is listed as “a band with increasing intensity was apparent in the biotin signal upon concentration increase”.

On to `C#CP(=O)(O)Nc1ccc(CCNC(=O)CCCC[C@@H]2SC[C@@H]3NC(=O)N[C@@H]32)cc1` [SM-PN, N-(4-(2-biotinamidoethyl)phenyl)-P-ethynylphosphonamidic acid], for which the “labeling of MCF-7 lysate by small molecule control SM-PN” value was “No labeling was observed”.

The values above are taken from paper PMC12970513, “Unsaturated Phosphorus Electrophiles to Probe Protein Tyrosine Phosphatases” (Angewandte Chemie (International Ed. in English), 2026).
